Values joined by “and” are separate entries in the source; they are usually repeats but may differ in a detail not shown here. Equal values may be shown once.
Tests used:
db/db mice = assay: Oral glucose tolerance test in db/db mice (blood glucose and blood lactic acid levels); assay type: in vivo, mice (C57BLKS/J-m+/+Lepr<db>(db/db)); conditions: subcutaneous, 30 min before oral glucose 3 g/kg, AUC up to 2 hours
Text: In a glucose tolerance test with oral administration to db/db mice, approximately 50% suppression of blood glucose level in the db/db mice produces a level increase similar to that of healthy mice, and therefore a blood glucose reduction rate of at least 40%, and especially at least 50%, is preferred.
Measurement of blood glucose reduction rate in db/db mice by a glucose tolerance test with oral administration may be carried out by a publicly known method, but the following method is preferred. Specifically, 11- to 17-week-old female mice (C57BLKS/J-m+/+Lepr(db/db) ) are starved for 18-24 hours. A group of five or six mice is used for the test. Blood is sampled from the tail for measurement of the blood glucose levels before treatment as a control. After sampling, the biguanide derivative is dissolved in phosphate-buffered saline to a suitable concentration and subcutaneously administered at a dose of 5 ml/kg. As a control there are prepared mice administered only the solvent. Glucose is then administered orally at a dose of 3 g/6 ml/kg at 30 minutes after administration of the compound or solvent as an oral glucose tolerance test. Blood is sampled from the tail for measurement of the blood glucose levels 30 minutes, 1 hour and 2 hours after glucose administration. The blood glucose levels are measured using a New Blood Sugar Test (Roche Diagnostics) or a Glucose CII-Test Wako (Wako Pure Chemical Industries, Ltd.).
(§1) The blood glucose reduction rate is calculated according to the following formula.
Blood glucose reduction rate (%)=[(AUC for blood glucose increase level of solvent-administered group—AUC for blood glucose increase level of compound-administered group)/AUC for blood glucose increase level of solvent-administered group]×100
The AUC for blood glucose increase level represents the area of the increase portion in a graph of the blood glucose level changes after glucose administration plotted with respect to time, up to 2 hours after glucose administration, with the glucose level prior to glucose administration as the baseline. Specifically, the AUC for the blood glucose increase level may be calculated by the following formula, where A=blood glucose level before glucose administration, B=blood glucose level 30 minutes after glucose administration, C=blood glucose level 1 hour after glucose administration, D=blood glucose level 2 hours after glucose administration.
AUC for blood glucose increase level=0.5×((A+B)/2-A)+0.5×((B+C)/2-A)+1×((C+D)/2-A)
Measurement of blood glucose reduction rate and blood lactic acid levels by the aforementioned oral glucose tolerance test may be carried out by a publicly known method, and the measurement of the former may be carried out by the method described above, while the following method is preferred for measurement of the latter. Specifically, 11- to 17-week-old female mice (C57BLKS/J-m+/+Lepr(db/db)) are starved for 18-24 hours. A group of five or six mice is used for the test. Blood is sampled from the tail for measurement of the blood lactic acid levels before treatment as a control. After sampling, the biguanide derivative is dissolved in phosphate-buffered saline to a suitable concentration and subcutaneously administered at a dose of 5 ml/kg. As a control there are prepared mice administered only the solvent. Glucose is then administered orally at a dose of 3 g/6 ml/kg at 30 minutes after administration of the compound or solvent as an oral glucose tolerance test. Blood is sampled from the tail for measurement of the blood lactic acid levels 30 minutes, 1 hour and 2 hours after glucose administration. The blood lactic acid levels are measured using an “Asuka Sigma” (Sigma Diagnostics)
The blood lactic acid level increase rate is calculated according to the following formula. […]

KKAy mice = assay: Hypoglycemic test by oral administration using KKAy mice; assay type: in vivo, mice (KKAy/Ta); conditions: AUC for blood glucose up to 6 hours after administration
Text: The strength of the insulin sensitivity-enhancing effect may be evaluated based on the degree of blood glucose reduction rate with administration of the drug agent to KKAy mice. […] In hypoglycemic tests by oral administration using KKAy mice, approximately 45% suppression of blood glucose level in KKAy mice produces a level similar to healthy mice, and therefore a blood glucose reduction rate of 40-50% is preferred.
Measurement of blood glucose reduction rate in KKAy mice by a hypoglycemic test with oral administration may be carried out by a publicly known method, but the following method is preferred.
Specifically, a group of six 11-week-old male mice (KKAy/Ta) is used for the test. Blood is sampled from the tail for measurement of the blood glucose levels before treatment as a control. After sampling, the biguanide derivative is dissolved in a 0.5% CMC-Na (sodium carboxymethyl cellulose) solution to a suitable concentration and orally administered at a dose of 10 mL/kg. As a control there are prepared mice administered only the solvent. Blood is sampled from the tail to measure the blood glucose levels 1, 2, 4 and 6 hours after administration of the drug. The blood glucose levels are measured using a Glucose CII-Test Wako (Wako Pure Chemical Industries, Ltd.).
as §1
Blood glucose reduction rate (%)=[(AUC for blood glucose of control group—AUC for blood glucose of compound-administered group)/AUC for blood glucose of control group]×100
The AUC for blood glucose represents the area in a graph of the blood glucose level changes after administration of the drug plotted with respect to time, up to 6 hours after administration with a glucose level of 0 as the baseline. Specifically, the AUC for the blood glucose level may be calculated by the following formula, where A=blood glucose level before drug administration, B=blood glucose level 1 hour after drug administration, C=blood glucose level 2 hours after drug administration, D=blood glucose level 4 hours after drug administration, E=blood glucose level 6 hours after drug administration.
AUC for blood glucose level=1×((A+B)/2)+1×((B+C)/2)+2×((C+D)/2)+2×((D+E)/2)
A group of six 11-week-old male mice (KKAy/Ta) was used for the test. Blood was sampled from the tail for measurement of the blood glucose levels before treatment as a control. After sampling, furfuryl biguanide was dissolved in a 0.5% CMC-Na (sodium carboxymethyl cellulose) solution to a suitable concentration and orally administered at 10 mL/kg with the dosages shown in Table 1 (Examples 1-5). For comparison, metformin was also orally administered to mice in the doses shown in Table 1 (Comparative Examples 1-5). As a control there were prepared mice which had been orally administered the solvent alone. Blood was sampled from the tail to measure the blood glucose levels 1, 2, 4 and 6 hours after administration of the drug, and the blood glucose reduction rates were calculated by the formula given above. The blood glucose levels were measured using a Glucose CIT-Test Wako (Wako Pure Chemical Industries, Ltd.).

[1] = Mus musculus, sc, 2 h, 75 mg/kg, read-out: Blood glucose reduction rate (%)
[2] = Mus musculus, sc, 2 h, read-out: Blood glucose reduction rate (%)
[3] = Mus musculus, sc, 2 h, 200 mg/kg, read-out: Blood glucose reduction rate (%)

SMILES: Cc1ccc(CNC(=N)NC(=N)N)o1 [1-(5-methylfurfuryl) biguanide]
- inhibition in vivo at 25 mg/kg (db/db mice; Mus musculus, sc, 2 h, 25 mg/kg, read-out: Blood glucose reduction rate (%)): 24.7%
- inhibition in vivo at 50 mg/kg (db/db mice; Mus musculus, sc, 2 h, 50 mg/kg, read-out: Blood glucose reduction rate (%)): 46.1%
- inhibition in vivo at 75 mg/kg (db/db mice; [1]): 54.7%
- inhibition in vivo at 100 mg/kg (db/db mice; [2]): 86.6%
- Blood lactic acid level increase rate (%) (db/db mice; 25 mg/kg): 3.9%
- Blood lactic acid level increase rate (%) (db/db mice; 50 mg/kg): 1.3%
- Blood lactic acid level increase rate (%) (db/db mice; 75 mg/kg): 14.7%

SMILES: CSCc1ccoc1CNC(=N)NC(=N)N [1-[(3-Methylthiomethylfuran-2-yl)methyl] Biguanide]
- inhibition in vivo at 150 mg/kg (db/db mice; [2]): 47.3%

SMILES: Cc1cc(CNC(=N)NC(=N)N)oc1C [1-[(4,5-Dimethylfuran-2-yl)methyl] Biguanide]
- inhibition in vivo at 75 mg/kg (db/db mice; [1]): 52%

SMILES: CSc1coc(CNC(=N)NC(=N)N)c1 [1-[(4-Methylthiofuran-2-yl)methyl] Biguanide]
- inhibition in vivo at 75 mg/kg (db/db mice; [1]): 44.1%
- inhibition in vivo at 100 mg/kg (db/db mice; [2]): 47.5%
- inhibition in vivo at 150 mg/kg (db/db mice; [2]): 58.1%
- inhibition in vivo at 200 mg/kg (db/db mice; [3]): 73.9%

SMILES: CSCc1ccc(CNC(=N)NC(=N)N)o1 [1-[(5-Methylthiomethylfuran-2-yl)methyll] Biguanide]
- inhibition in vivo at 75 mg/kg (db/db mice; [1]): 46%

SMILES: CCc1ccc(CNC(=N)NC(=N)N)o1 [1-[(5-ethylfuran-2-yl)methyl] biguanide, 1-[(5-Ethylfuran-2-yl)methyl] Biguanide]
- inhibition in vivo at 75 mg/kg (db/db mice; [1]): 71.3%

SMILES: CC(C)(C)c1ccc(CNC(=N)NC(=N)N)o1 [1-[(5-tert-butylfuran-2-yl)methyl] Biguanide]
- inhibition in vivo at 75 mg/kg (db/db mice; [1]): 62.1%

SMILES: N=C(N)NC(=N)NCc1ccco1 [Furfuryl biguanide, Furfuryl Biguanide]
- inhibition in vivo at 20 mg/kg (db/db mice; Mus musculus, sc, 2 h, 20.0 mg/kg, read-out: Blood glucose reduction rate (%)): 46.9%
- inhibition in vivo at 40 mg/kg (db/db mice; Mus musculus, sc, 2 h, 40.0 mg/kg, read-out: Blood glucose reduction rate (%)): 52.3%
- inhibition in vivo at 75 mg/kg (db/db mice; [1]): 60.6%
- inhibition in vivo at 80 mg/kg (db/db mice; Mus musculus, sc, 2 h, 80.0 mg/kg, read-out: Blood glucose reduction rate (%)): 68.7%
- Blood lactic acid level increase rate (%) (db/db mice; 20.0 mg/kg): 7.0%
- Blood lactic acid level increase rate (%) (db/db mice; 40.0 mg/kg): 16.7%
- Blood lactic acid level increase rate (%) (db/db mice; 75 mg/kg): 22.0%
- Blood lactic acid level increase rate (%) (db/db mice; 80.0 mg/kg): 11.2%
- Blood glucose reduction rate (%) (KKAy mice; 25.0 mg/kg): 8.7%
- Blood glucose reduction rate (%) (KKAy mice; 50.0 mg/kg): 15.2%
- Blood glucose reduction rate (%) (KKAy mice; 100.0 mg/kg): 29.4%
- Blood glucose reduction rate (%) (KKAy mice; 200.0 mg/kg): 43.9%
- Blood glucose reduction rate (%) (KKAy mice; 300.0 mg/kg): 48.0%

SMILES: CN(C)C(=N)N=C(N)N [Metformin, reference compound]
- inhibition in vivo at 100 mg/kg (db/db mice; [2]): 19.4%
- inhibition in vivo at 200 mg/kg (db/db mice; [3]): 37.5%
- Blood lactic acid level increase rate (%) (db/db mice; 200 mg/kg, 200 mg/kg): 36.8% and 42.7%
- Blood lactic acid level increase rate (%) (db/db mice; 300 mg/kg, 300 mg/kg): 133.7% and 155.9% and 138.9% and 145.9%
- Blood glucose reduction rate (%) (KKAy mice; 150.0 mg/kg): 11.6%
- Blood glucose reduction rate (%) (KKAy mice; 300.0 mg/kg): 6.4%
- Blood glucose reduction rate (%) (KKAy mice; 600.0 mg/kg): 21.8%
- Blood glucose reduction rate (%) (KKAy mice; 900.0 mg/kg): 32.7%
- Blood glucose reduction rate (%) (KKAy mice; 1350.0 mg/kg): 46.4%

From patent US20040063780A1, “Pharmaceutical preparations for treatment of type II diabetes and methods for treatment of type II diabetes” (CHUGAI SEIYAKU KABUSHIKI KAISHA, priority 2002, published 2004)
